Test results from patent US9339487B2, “Dry powder pharmaceutical composition for inhalation” (priority 2008, dated 2016).
Like-named read-outs stand apart in the source and are kept apart here.

Assays:
[1] = assay type: in vivo, human
Experimental: The medicinal component was administered in a single inhaled dose of 5 mg, 10 mg, 20 mg, or 40 mg to healthy adult male subjects, and the pharmacokinetics of the medicinal component and the compound (III), which is an active metabolite of the medicinal component, were evaluated.
(§1) The administration was performed using the composition prepared according to Example 41.

clinical = assay type: in vivo, human; conditions: for fe0-144 h [%]: cumulative urinary recovery until 144 hours; for fe0-144 h [%] / Cmax / half-life / AUC(0-inf): geometric mean; for Tmax / Cmax / half-life / AUC(0-inf): male, human, in vivo; for Tmax: inhaled or intranasal, single inhaled dose of medicinal component, plasma, median; for AUC(0-inf): read-out: AUC0-inf [ng/mL]
Experimental: The medicinal component was administered in a single inhaled dose of 80 mg or 120 mg to healthy adult male subjects, and the pharmacokinetics of the medicinal component were evaluated. In addition, the pharmacokinetics of the Compound (III), an active metabolite of the medicinal component, were also determined.
as §1

[2] = system: influenza A or B virus infection; assay: Test of comparison with oseltamivir phosphate for child patients; assay type: in vivo, human
[3] = system: influenza A or B virus infection; assay type: in vivo, human; conditions: adult patients
[4] = system: influenza A or B virus infection; assay type: in vivo, human

Row | Compound | time after administration at which plasma concentration was less than the quantification lower limit ([1]; each dose group (5, 10, 20, 40 mg), single inhaled dose) | dose proportionality of pharmacokinetic parameters (Cmax, AUC0-tz, AUC0-inf, Ae0-144h of medicinal component; Cmax, Ae0-144h of compound (III)) ([1]; single inhaled dose 5, 10, 20 or 40 mg) | time after administration at which almost not detected in urine ([1]; urinary excretion, single inhaled dose 5 to 40 mg) | fe0-144 h [%] (clinical; 80 mg group) | fe0-144 h [%] (clinical; 120 mg group) | Tmax (clinical; 80 mg group) | Tmax (clinical; 120 mg group) | Cmax (clinical; 80 mg group) | half-life (clinical; 80 mg group) | AUC(0-inf) (clinical; 80 mg group) | Cmax (clinical; 120 mg group) | half-life (clinical; 120 mg group) | AUC(0-inf) (clinical; 120 mg group) | duration of the illness compared with the oseltamivir phosphate group ([2]; child patients, each of the 20 mg group and the 40 mg group) | upper limit of the 95% confidence interval for the difference between the median values ([3]; every dose group (20 mg, 40 mg), non-inferiority margin 18 hours) | Difference (95% confidence interval, hours) in median value from the oseltamivir phosphate group ([4]; human, in vivo) | duration of influenza illness compared with the oseltamivir phosphate group ([4]; human, in vivo) | Median value (hours) of the duration of influenza illness ([2]; child patients (9 or less years old), 2 mg/kg twice daily for 5 days) | Median value (hours) of the duration of influenza illness ([3]; 75 mg twice daily for 5 days) | Median value (hours) of the duration of influenza illness ([4]; 75 mg twice daily for 5 days)
1 | CCCCCCCC(=O)OC[C@@H](O)[C@@H](OC)[C@@H]1OC(C(=O)O)=C[C@H](NC(=N)N)[C@H]1NC(C)=O [Medicinal component, (2R,3R,4S)-3-acetamido-4-guanidino-2-[(1R,2R)-2-hydroxy-1-methoxy-3-(octanoyloxy)propyl]-3,4-dihydro-2H-pyran-6-carboxylic acid] | ≥ 24 h | Dose proportionality was observed | ≥ 24 h | 3.5% | 2.7% | 0.5 h | 0.5 h | 335 ng/mL | 5.66 h | 1270 ng·h/mL | 412 ng/mL | 2.87 h | 1560 ng·h/mL | shorter | less than 18 hours | −1.4(−27.6 to 7.3) hours | almost equal |  |  | 
2 | CCOC(=O)C1=C[C@@H](OC(CC)CC)[C@H](NC(C)=O)[C@@H](N)C1 [Oseltamivir phosphate, oseltamivir phosphate, reference compound] |  |  |  |  |  |  |  |  |  |  |  |  |  |  |  |  |  | 87.3 h | 73.6 h | 87.4 h
